Data reported in US7166614B2, “Tetrahydropyranyl cyclopentyl tetrahydroisoquinoline modulators of chemokine receptor activity” (Merck & Co., Inc., priority 2002, dated 2007).

Legend:
[1] = Storage stability at room temperature (air oxidation, LC-MS); type: physicochemical; conditions: stored in a scintillation vial at room temperature for three months; degradation by air oxidation; separation by reverse phase HPLC
Description: Separation by Gilson reverse phase HPLC provided two new products (Example 114 and 115) and 60% of the parent compound recovered. These compounds were analyzed by NMR and LC-MS to determine the structures.

CCR-2 receptor = biological target: T1, CCR-2 receptor (Homo sapiens, UniProt P41597); assay: CCR-2 binding assay (inhibition of 125I-MCP-1 binding); conditions: cis isomer compared with trans isomer, resolved on preparation plate; assay not specified
T1 construct: the endogenous CCR-2 receptor on various cell types including monocytes, THP-1 cells; endogenous in cells; host or cells: monocytes, THP-1 cells (or eukaryotic cells expressing the cloned receptor)
T1 sequence (P41597 whole entry): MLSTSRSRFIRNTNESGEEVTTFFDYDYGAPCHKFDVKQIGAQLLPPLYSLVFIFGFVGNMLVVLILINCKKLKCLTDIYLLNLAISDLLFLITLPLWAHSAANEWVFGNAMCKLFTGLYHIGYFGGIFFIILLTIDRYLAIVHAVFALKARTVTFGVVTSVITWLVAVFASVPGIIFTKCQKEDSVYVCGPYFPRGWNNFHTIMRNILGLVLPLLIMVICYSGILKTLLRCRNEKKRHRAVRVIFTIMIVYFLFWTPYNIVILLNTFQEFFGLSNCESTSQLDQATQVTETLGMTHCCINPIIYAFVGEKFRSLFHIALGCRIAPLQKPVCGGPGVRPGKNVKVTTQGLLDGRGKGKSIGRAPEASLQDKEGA
Description: Receptor affinity in a CCR-2 binding assay was determined by measuring inhibition of ^125I-MCP-1 to the endogenous CCR-2 receptor on various cell types including monocytes, THP-1 cells, or after heterologous expression of the cloned receptor in eukaryotic cells. The cells were suspended in binding buffer (50 mM HEPES, pH 7.2,5 mM MgCl2, 1 mM CaCl2, and 0.50% BSA) with and added to test compound or DMSO and ^125I-MCP-1 at room temperature for 1 h to allow binding. The cells were then collected on GFB filters, washed with 25 mM HEPES buffer containing 500 mM NaCl and cell bound ^125I-MCP-1 was quantified.

Row | SMILES | parent compound recovered after storage [1] [%] | relative activity of cis vs trans isomer (CCR-2 receptor)
1 | CC(C)[C@]1(C(=O)N2CCc3ccc(C(F)(F)F)cc3C2)CC[C@@H](NC2CCOCC2F)C1 (some centres unmarked) [Example 96] | 60 | 
2 | CSC1(C(=O)N2CCc3ccc(C(F)(F)F)cc3C2)CC[C@@H](NC2CCOCC2)C1 (some centres unmarked) [Example 3] |  | more active
